Measurements taken from PMC8398472, “Anticancer Diiron Vinyliminium Complexes: A Structure–Activity Relationship Study” (Pharmaceutics, 2021).
Several values for one entry are separate records, joined by “and”; a condition that tells them apart may be missing. Equal entries are not always repeated. Where two headings read alike, the source gives them in different places.

Assays:
[1] = system: mouse embryo fibroblasts Balb/3T3 clone A31; assay: Cytotoxicity, WST-1 cell viability assay, Balb/3T3 clone A31; assay type: cell-based; settings: 72 h exposure
Procedure: (§1) In vitro cytotoxicity investigations were carried out by using human ovarian carcinoma cisplatin-sensitive A2780 (ECACC93112519), human ovarian carcinoma cisplatin-resistant A2780cisR (ECACC 93112517) and mouse embryo fibroblasts Balb/3T3 clone A31 (ATCC CCL-163) cell lines. A2780 and A2780cisR were purchased from the European Collection of Authenticated Cell Cultures (ECACC), and Balb/3T3 clone A31 cell line from the American Type Culture Collection (ATCC).
(§2) A2780 and A2780cisR cells were routinely cultured in RPMI 1640 (Merck) containing 2 mM of L-glutamine (Merck), 1% of penicillin/streptomycin solution (Merck—10 000 U mL^−1: 10 mg mL^−1), 10% of fetal bovine serum (Merck—FBS) and antimycotic (InvivoGen, USA), and Balb/3T3 clone A31 in Dulbecco’s modified Eagle medium (Merck—DMEM) supplemented with 4 mM of L-glutamine, 1% of penicillin/streptomycin solution, 10% of calf serum (Merck) and antimycotic. […] The cultures were maintained at 37 °C and in a 5% CO2-enriched atmosphere.
(§3) A2780, A2780cisR and Balb/3T3 clone A31 cells were seeded in 96-well tissue culture polystyrene plates at a concentration of 3 × 10^3, 6 × 10^3 and 1 × 10^3 cells per well, respectively. After overnight incubation, the cells were treated with different concentrations (0–100 µM) of the selected compounds for 72 h at 37 °C in a 5% atmosphere of CO2. Stock solutions of compounds were prepared in DMSO and sequentially diluted in medium (final DMSO concentration of 0.5%). […] At the end of the incubation time, cell viability was assessed by means of WST-1 tetrazolium salt reagent (Roche). Briefly, cells were incubated for 4 h with the tetrazolium salt reagent diluted 1:10, at 37 °C and 5% CO2. Measurements of formazan dye absorbance, which directly correlates with the number of viable cells, were carried out with a micro-plate reader (Biorad) at 450 nm, using 655 nm as reference wavelength. The 50% inhibitory concentration (IC50) refers to compound concentration at which 50% of cell death is observed with respect to the control. For each tested compound, assay was performed on triplicate. The concentration effect curves were generated by nonlinear regression curves (GraphPad Prism Software, 2021) and the data reported as mean ± standard deviation.

[2] = system: human ovarian carcinoma cisplatin-resistant A2780cisR; assay: Cytotoxicity, WST-1 cell viability assay, A2780cisR; assay type: cell-based; settings: 72 h exposure
Procedure: as §1, §2, §3

[3] = system: human ovarian carcinoma cisplatin-sensitive A2780; assay: Cytotoxicity, WST-1 cell viability assay, A2780; assay type: cell-based; settings: for IC50: 72 h exposure; for Selectivity index (S.I.): ratio between IC50 for Balb/3T3 and IC50 for A2780
Procedure: as §1, §2, §3

[4] = Stability in DMSO-d6/D2O or D2O solution at 37 °C for 72 h (1H NMR); assay type: physicochemical; settings: 72 h at 37 °C
Procedure: (§4) • (a) Solubility in D2O. A suspension of the selected diiron compound (3–5 mg) in a D2O solution (ca. 1 mL) containing Me2SO2 (3.36 × 10^−3 M) as internal standard was vigorously stirred at 21 °C for 1.5 h. The resulting saturated solution was filtered over celite, transferred into an NMR tube and then analyzed by ^1H NMR spectroscopy (delay time = 3 s; number of scans = 20). The concentration (solubility) was calculated by the relative integral (related to Cp and/or NMe signals) with respect to Me2SO2 (δ = 3.14 ppm). • (b) Stability in DMSO-d6/D2O solution. The selected diiron compound (ca. 4 mg) was added of 1 mL of D2O (3a,c) or DMSO-d6/D2O (2:1 v/v) mixture (2a,c, 3b, 4a–c, 5a–c, 6a–c, 7), containing Me2SO2 (3.36 × 10^−3 M). The resulting mixture was stirred for 30 min and then filtered over celite; the filtrated solution was transferred into an NMR tube. The sample was analyzed by ^1H NMR (time = 0) and then heated at 37 °C for 72 h. After cooling to room temperature, the solution was separated from a small amount of solid by filtration over celite, and the new ^1H NMR spectrum was recorded (delay time = 3 s; number of scans = 20). In every case, no newly formed organometallic species was detected. The amount of starting material in solution (% with respect to the initial spectrum) was calculated by the relative integral (vs. Cp and/or NMe signals) with respect to Me2SO2 as internal standard.

[5] = Solubility in D2O by 1H NMR (Me2SO2 internal standard); assay type: physicochemical; settings: for Solubility: 21 °C
Procedure: as §4

[6] = Octanol–water partition coefficient (shake-flask, UV–Vis); assay type: physicochemical; settings: 21 °C
Procedure: • (c) Octanol–water partition coefficients (Log Pow). Partition coefficients (Pow; IUPAC: KD partition constant), defined as Pow = corg/caq, where corg and caq are molar concentrations of the selected compound in the organic and aqueous phase, respectively, were determined by the shake-flask method and UV–Vis measurements. Deionized water and 1-octanol were vigorously stirred for 24 h to enable saturation of both phases, then separated by centrifugation. A stock solution of the selected diiron compound (ca. 2 mg; 2a–c, 3b, 4a–c, 5a, 5c, 6b,c, 7) was prepared by first adding acetone (50 μL, to help solubilization), followed by water-saturated octanol (2.5 mL). The solution was diluted with water-saturated octanol (ca. 1:3 v/v ratio, cFe2 ≈ 10^−4 M, so that 1.5 ≤ A ≤ 2.0 at λmax) and the UV–Vis spectrum was recorded (A^0org). An aliquot of the solution (Vorg = 1.2 mL) was transferred into a test tube and octanol-saturated water (Vorg = Vaq = 1.2 mL) was added. The mixture was vigorously stirred for 15 min at 21 °C and then centrifuged (5000 rpm, 10 min). The UV–Vis spectrum of the organic phase was recorded (A^forg) and the partition coefficient was calculated as Pow = A^forg/(A^0org − A^forg), where A^0org and A^forg are the absorbance in the organic phase before and after partition with the aqueous phase, respectively. An inverse procedure was followed for 3a, 3c, 5b and 6a, starting from a solution of the compound in octanol-saturated water. The partition coefficient was calculated as Pow = (A^0aq − A^faq)/A^faq where A^0aq and A^faq are the absorbance in the aqueous phase before and after partition with the organic phase, respectively. The wavelength of the maximum absorption of each compound (ca. 300 nm) was used for UV–Vis quantitation. The procedure was repeated three times for each sample (from the same stock solution); results are given as mean ± standard deviation.

[7] = cited from earlier work; for Log Pow: previously determined
[8] = system: human ovarian carcinoma cisplatin-sensitive A2780; design: method as in PMID 31441186; settings: previously determined on the same cell line; cited from earlier work

| Compound | Solubility [5] | Log Pow [6] | Stability % (residual % of starting material) ([4]; DMSO-d6/D2O (2:1 v/v)) [%] | IC50 [1] [µM] | IC50 [3] | Selectivity index (S.I.) [3] | other results |
| --- | --- | --- | --- | --- | --- | --- | --- |
| N.N.[Cl][Pt][Cl] [cisplatin, reference compound] |  |  |  | 0.8 ± 0.2 | 0.4 ± 0.07 µM |  | IC50 [2]: 26 ± 3 µM |
| O=C1C=CC(=O)c2ccccc21 [Naphthoquinone] |  |  |  |  |  |  | Log P ([7]; literature value): 1.71 |
| Cc1cccc(C)c1[N+](C)=[C]1C=[C](c2ccccc2)[Fe+]2(=[C]=O)[C](=O)[Fe+]12.O=S(=O)([O-])C(F)(F)F.c1cc[cH-]c1.c1cc[cH-]c1 (stereo not shown) [[Fe2Cp2(CO)(μ-CO){μ-η^1:η^3-C^3(Ph)C^2HC^1NMe(Xyl)}]CF3SO3] |  |  |  |  |  |  | Log Pow [7]: 0.4; IC50 [8]: 0.9 ± 0.06 µM |
| [Fe2Cp2(CO)(μ-CO){μ-η^1:η^3-C^3(Me)C^2HC^1N(CH2Ph)2}]CF3SO3 [Compound 2a] |  | 0.45 ± 0.04 | 81 | 14 ± 4 | 2 ± 0.7 µM | 7 |  |
| [Fe2Cp2(CO)(μ-CO){μ-η^1:η^3-C^3(Me)C^2HC^1NMe2}]CF3SO3 |  |  |  |  |  |  | Log Pow [7]: −0.3; IC50 [8]: 35 ± 3 µM |
| CC1=[C](C)[Fe+]2(=[C]=O)[C](=O)[Fe+]2[C]1=[N+](C)c1c(C)cccc1C.O=S(=O)([O-])C(F)(F)F.c1cc[cH-]c1.c1cc[cH-]c1 (stereo not shown) [[Fe2Cp2(CO)(μ-CO){μ-η^1:η^3-C^3(Me)C^2(Me)C^1NMe(Xyl)}]CF3SO3] |  |  |  |  |  |  | Log Pow [7]: 0.0; IC50 [8]: 0.5 ± 0.06 µM |
| [Fe2Cp2(CO)(μ-CO){μ-η^1:η^3-C^3(Ph)C^2HC^1N(CH2Ph)2}]CF3SO3 [Compound 2b] |  | 1.4 and 1.4 ± 0.2 |  |  |  |  | Solubility in D2O (in words) [5]: almost insoluble in D2O |

The next lines start with results.

| Solubility [5] | Log Pow [6] | Stability % (residual % of starting material) ([4]; DMSO-d6/D2O (2:1 v/v)) [%] | Compound | IC50 [1] [µM] | IC50 [3] | Selectivity index (S.I.) [3] | other results |
| --- | --- | --- | --- | --- | --- | --- | --- |
| 6.43 × 10^−3 mol·L^−1 and 3.66 g·L^−1 | −0.75 ± 0.01 |  | [Fe2Cp2(CO)(μ-CO){μ-η^1:η^3-C^3(Me)C^2HC^1NMe(CH2CH = CH2)}]CF3SO3 [Compound 3a] | > 100 | 17.7 ± 0.8 µM | >5.6 | Stability % (residual % of starting material) ([4]; neat D2O): 93 ^a % |
| 2.22 × 10^−3 mol·L^−1 and 1.41 g·L^−1 | −0.46 ± 0.01 | 94 | [Fe2Cp2(CO)(μ-CO){μ-η^1:η^3-C^3(Me)C^2HC^1NMe(4-C6H4OMe)}]CF3SO3 [Compound 6a] | 94 ± 4 | 3.5 ± 0.5 µM | 27 |  |
|  | −0.26 ± 0.01 | 85 | [Fe2Cp2(CO)(μ-CO){μ-η^1:η^3-C^3(Me)C^2HC^1NMe(CH2Ph)}]CF3SO3 [Compound 5a] | > 100 | 7.1 ± 0.4 µM | >14 |  |
| 6.89 × 10^−3 mol·L^−1 and 4.02 g·L^−1 | −0.77 ± 0.01 |  | [Fe2Cp2(CO)(μ-CO){μ-η^1:η^3-C^3(Me)C^2(Me)C^1NMe(CH2CH = CH2)}]CF3SO3 [Compound 3c] | > 100 | ~17 µM and 17 µM | >5.9 | Stability % (residual % of starting material) ([4]; neat D2O): 85 ^a % |
| 1.10 × 10^−3 mol·L^−1 and 0.73 g·L^−1 | 0.13 ± 0.01 | 84 | [Fe2Cp2(CO)(μ-CO){μ-η^1:η^3-C^3(Et)C^2(Et)C^1NMe(CH2Ph)}]CF3SO3 [Compound 5c] | 90 ± 8 | 3.75 ± 0.14 µM | 24 |  |
| 1.52 × 10^−3 mol·L^−1 and 1.02 g·L^−1 | 0.41 ± 0.02 | 65 | [Fe2Cp2(CO)(μ-CO){μ-η^1:η^3-C^3(Ph)C^2HC^1NMe(Cy)}]CF3SO3 [Compound 4b] | 35 ± 3 | 2.6 ± 0.3 µM | 13 |  |
